pIC50: −log10 of the molar value. Values joined by “and” are separate entries in the source; they are usually repeats but may differ in a detail not shown here. Equal entries are not always repeated.
Columns and labels:
EGFR = EGFR (Homo sapiens, UniProt P00533); assay: ProQinase in-cell EGFR assay (EGFR phosphorylation in A431 cells); type: cell-based; set-up: This cell line endogenously expresses a high level of EGFR; endogenous in cells; host or cells: A431; conditions: ProQinase in-cell EGFR assay, A431 cells, n = 1
From the text: In addition, we ran an EGFR in-cell target engagement assay, measuring in-cell EGFR phosphorylation, using the human epidermoid carcinoma cell line A431. This cell line endogenously expresses a high level of EGFR, and stimulation of these cells with human epidermal growth factor (EGF) results in receptor tyrosine autophosphorylation.

U-CH2 chordoma cell line = assay: Cell viability assay (alamarBlue, 72 h), U-CH2; type: cell-based, human
Experimental: (§1) Chordoma cell lines were cultured as described previously[10],[12],[33],[34]. Briefly, U-CH1 and U-CH2 cell lines were cultured in 4:1 IMDM:RPMI medium supplemented with 10% fetal bovine serum (FBS) and 1% penicillin/streptomycin in gel-coated flasks. […] CH22, UM-Chor1, U-CH12, and U-CH7 cell lines were cultured in RPMI medium supplemented with 10% FBS and 1% penicillin/streptomycin. The cell lines all undergo regular mycoplasma screening.
(§2) Cells were seeded in 384 well plates and were treated with test compound in quadruplicate 24 h after plating. Cell viability was assessed at 72 h using alamarBlue (ThermoFisher, USA). […] IC50 values were determined by four-parameter nonlinear regression analyses using GraphPad Prism™ version 8 software (San Diego, CA).

[1] = tested on: U-CH12 patient-derived chordoma cell line; assay: Cell viability assay (alamarBlue, 72 h), U-CH12; type: cell-based, human; conditions: n = 4, 72 h
Experimental: as §1, §2

[2] = tested on: U-CH7 patient-derived chordoma cell line; assay: Cell viability assay (alamarBlue, 72 h), U-CH7; type: cell-based, human; conditions: n = 4, 72 h
Experimental: as §1, §2

[3] = tested on: UM-Chor1 patient-derived chordoma cell line; assay: Cell viability assay (alamarBlue, 72 h), UM-Chor1; type: cell-based, human; conditions: n = 4, 72 h
Experimental: as §1, §2

[4] = tested on: WS1 human fibroblast cell line; assay: Cell viability assay, WS1 toxicity control; type: cell-based; conditions: n = 4, nonspecific toxicity control
Experimental: as §2

HL60 cells = assay: AsedaSciences SYSTEMETRIC Cell Health Screen (flow cytometry toxicity profiling); conditions: for CC: Cell Cycle score / CM: Cell morphology score / GSH: Glutathione score / NMI1: Nuclear membrane integrity 1 score / ROS: Reactive superoxide species score / CHI: Cell Health Index / CMI: Cell membrane integrity score / MMP: Mitochondrial membrane depolarization score / NMI2: Nuclear membrane integrity 2 score: HL60, 4 h, 5 nM–100 µM; for CC: Cell Cycle score / CM: Cell morphology score / GSH: Glutathione score / NMI1: Nuclear membrane integrity 1 score / ROS: Reactive superoxide species score / CMI: Cell membrane integrity score / MMP: Mitochondrial membrane depolarization score / NMI2: Nuclear membrane integrity 2 score: probability 0–1, n = 2; for CHI: Cell Health Index: probability (0–1) of high-risk class, n = 2; for Cell Health Toxcity Profile CC (DyeCycle Violet) / Cell Health Toxcity Profile CM (Cell morphology) / Cell Health Toxcity Profile CMI (Cell membrane integrity) / Cell Health Toxcity Profile GSH (Glutathione) / Cell Health Toxcity Profile MMP (Mitochondrial membrane depolarization) / Cell Health Toxcity Profile NMI1 (Nuclear membrane integrity 1) / Cell Health Toxcity Profile NMI2 (Nuclear membrane integrity 2) / Cell Health Toxcity Profile ROS (Reactive superoxide species) / Cell Health Toxcity Profile CHI: SYSTEMETRIC Cell Health Screen, assay n=2; for Cell Health Toxcity Profile CHI: classifier output
Method in brief: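 Risk scores derive from a logistic-regression ML classifier comparing flow-cytometric stress phenotypes with those of 300 reference compounds of known high or low human risk. Phenotypes: light scatter plus fluorescent physiological dyes, twelve parameters, no gating. Compounds tested 5 nM–100 µM (3× steps, duplicate) on HL60 cells, 4 h, 37 °C.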

U-CH1 chordoma cell line = assay: Cell viability assay (alamarBlue, 72 h), U-CH1; type: cell-based, human
Experimental: as §1, §2

[5] = tested on: CH22 patient-derived chordoma cell line; assay: Cell viability assay (alamarBlue, 72 h), CH22; type: cell-based, human; conditions: n = 4, 72 h
Experimental: as §1, §2

[6] = Homo sapiens, UCH2, n = 4, 72 h

Sequence of EGFR (P00533 25-1210): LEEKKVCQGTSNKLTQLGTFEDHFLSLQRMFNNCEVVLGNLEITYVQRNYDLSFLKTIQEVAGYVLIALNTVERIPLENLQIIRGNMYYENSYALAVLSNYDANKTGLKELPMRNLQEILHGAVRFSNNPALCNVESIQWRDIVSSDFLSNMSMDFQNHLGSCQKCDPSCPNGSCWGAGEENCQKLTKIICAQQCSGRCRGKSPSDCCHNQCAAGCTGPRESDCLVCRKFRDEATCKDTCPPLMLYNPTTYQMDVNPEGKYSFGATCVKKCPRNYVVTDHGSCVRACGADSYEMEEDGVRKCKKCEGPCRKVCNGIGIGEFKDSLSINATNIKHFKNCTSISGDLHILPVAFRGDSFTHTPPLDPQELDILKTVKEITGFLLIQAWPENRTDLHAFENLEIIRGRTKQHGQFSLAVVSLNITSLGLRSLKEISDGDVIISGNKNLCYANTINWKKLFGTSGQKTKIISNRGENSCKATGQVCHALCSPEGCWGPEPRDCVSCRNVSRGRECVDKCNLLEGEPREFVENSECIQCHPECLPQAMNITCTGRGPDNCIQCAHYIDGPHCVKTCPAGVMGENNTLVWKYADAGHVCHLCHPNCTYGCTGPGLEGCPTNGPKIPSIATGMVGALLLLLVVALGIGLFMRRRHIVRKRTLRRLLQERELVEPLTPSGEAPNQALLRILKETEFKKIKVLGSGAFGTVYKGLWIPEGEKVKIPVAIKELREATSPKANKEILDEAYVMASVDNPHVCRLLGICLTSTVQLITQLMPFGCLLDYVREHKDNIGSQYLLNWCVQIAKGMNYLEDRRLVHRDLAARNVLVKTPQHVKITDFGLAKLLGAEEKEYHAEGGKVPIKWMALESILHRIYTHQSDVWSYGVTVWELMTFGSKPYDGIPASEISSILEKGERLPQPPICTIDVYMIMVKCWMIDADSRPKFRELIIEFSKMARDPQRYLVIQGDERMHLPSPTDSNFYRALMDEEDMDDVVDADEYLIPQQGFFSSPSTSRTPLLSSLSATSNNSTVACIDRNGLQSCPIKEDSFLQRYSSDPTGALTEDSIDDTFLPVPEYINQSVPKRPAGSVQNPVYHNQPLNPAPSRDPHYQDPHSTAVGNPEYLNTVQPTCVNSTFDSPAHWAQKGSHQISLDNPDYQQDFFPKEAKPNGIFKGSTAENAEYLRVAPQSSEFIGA

pIC50 (EGFR)	Structure (SMILES)	CM: Cell morphology score (HL60 cells)	GSH: Glutathione score (HL60 cells)	pIC50 (U-CH2 chordoma cell line; n = 4, 72 h)	pIC50 (U-CH1 chordoma cell line; n = 4, 72 h)	Cell Health Toxcity Profile CC (DyeCycle Violet) (HL60 cells)	Cell Health Toxcity Profile CM (Cell morphology) (HL60 cells)	Cell Health Toxcity Profile CMI (Cell membrane integrity) (HL60 cells)	Cell Health Toxcity Profile GSH (Glutathione) (HL60 cells)	Cell Health Toxcity Profile MMP (Mitochondrial membrane depolarization) (HL60 cells)	Cell Health Toxcity Profile NMI1 (Nuclear membrane integrity 1) (HL60 cells)	Cell Health Toxcity Profile NMI2 (Nuclear membrane integrity 2) (HL60 cells)	Cell Health Toxcity Profile ROS (Reactive superoxide species) (HL60 cells)	Cell Health Toxcity Profile CHI (HL60 cells)	other results
4.92	C#Cc1cccc(Nc2ncnc3cc(F)c(F)cc23)c1 [Compound 6, N-(3-ethynylphenyl)-6,7-difluoroquinazolin-4-amine]	–	–	–	–	–	–	–	–	–	–	–	–	–	–
6.08	C#Cc1cccc(Nc2ncnc3ccc(I)cc23)c1 [Compound 9, N-(3-ethynylphenyl)-6-iodoquinazolin-4-amine]	0.0063	0.050 and 0.029	–	–	–	–	–	–	–	–	–	–	–	pIC50 (U-CH2 chordoma cell line; [6]): < 4.00; pIC50 ([1]; Homo sapiens): < 4.00; pIC50 ([2]; Homo sapiens): < 4.00; pIC50 ([3]; Homo sapiens): < 4.00; pIC50 ([4]; Homo sapiens, Fibroblast): 4.01; CC: Cell Cycle score (HL60 cells): 0.087 and 0.071; NMI1: Nuclear membrane integrity 1 score (HL60 cells): 0.13 and 0.069; ROS: Reactive superoxide species score (HL60 cells): 0.083 and 0.088; CHI: Cell Health Index (HL60 cells): 0.21; pIC50 (U-CH1 chordoma cell line; Homo sapiens, UCH1, 72 h, n = 4, 72 h): 5.06; pIC50 ([5]; Homo sapiens): < 4.00
6.28	C#Cc1cccc(Nc2ncnc3cc(OC)ccc23)c1 [Compound 11]	0.050	0.0085	5.92	5.72	–	–	–	–	–	–	–	–	–	pIC50 [1]: < 4.00; pIC50 [2]: 4.02; pIC50 [3]: < 4.00; pIC50 [4]: 4.06; CC: Cell Cycle score (HL60 cells): 0.52; CMI: Cell membrane integrity score (HL60 cells): 0.032; MMP: Mitochondrial membrane depolarization score (HL60 cells): 0.068; NMI1: Nuclear membrane integrity 1 score (HL60 cells): 0.61; NMI2: Nuclear membrane integrity 2 score (HL60 cells): 0.15; ROS: Reactive superoxide species score (HL60 cells): 0.63; CHI: Cell Health Index (HL60 cells): 0.25; pIC50 [5]: < 4.00
–	C#Cc1cccc(Nc2c(C#N)cnc3ccc(F)cc23)c1 [Compound 25]	–	–	< 4.00	4.64	0.76	0.98	0.99	0.97	0.96	0.71	0.72	0.93	0.69	–
–	C#Cc1cccc(Nc2c(C#N)cnc3ccc(Cl)cc23)c1 [Compound 26]	–	–	4.40	4.85	0.93	1.00	1.00	0.99	0.99	0.98	0.97	1.00	0.83	–
–	C#Cc1cccc(Nc2c(C#N)cnc3ccc(Br)cc23)c1 [Compound 27]	–	–	4.52	4.66	0.98	1.00	1.00	0.98	0.96	0.32	0.98	1.00	0.75	–
5.60	C#Cc1cccc(Nc2c(C#N)cnc3ccc(I)cc23)c1 [Compound 28, 4-((3-ethynylphenyl)amino)-6-iodoquinoline-3-carbonitrile]	0.88	0.93	–	–	0.91	0.88	1.00	0.93	0.99	0.74	0.81	0.89	0.70	pIC50 (U-CH2 chordoma cell line; [6]): 4.85; pIC50 ([1]; Homo sapiens): 5.11; pIC50 ([2]; Homo sapiens): < 4.00; pIC50 ([3]; Homo sapiens): 5.16; CC: Cell Cycle score (HL60 cells): 0.91; CMI: Cell membrane integrity score (HL60 cells): 1.00; MMP: Mitochondrial membrane depolarization score (HL60 cells): 0.99; NMI1: Nuclear membrane integrity 1 score (HL60 cells): 0.74; NMI2: Nuclear membrane integrity 2 score (HL60 cells): 0.81; ROS: Reactive superoxide species score (HL60 cells): 0.89; CHI: Cell Health Index (HL60 cells): 0.70; pIC50 (U-CH1 chordoma cell line; Homo sapiens, UCH1, n = 4, 72 h): 5.06; pIC50 ([5]; Homo sapiens): 5.08
–	C#Cc1cccc(Nc2c(C#N)cnc3ccc(S(C)(=O)=O)cc23)c1 [Compound 29]	–	–	4.28	4.04	0.071	0.003	0.037	0.039	0.021	0.18	0.009	0.046	0.16	–
–	C#Cc1cccc(Nc2c(C#N)cnc3cc(Cl)ccc23)c1 [Compound 30]	–	–	< 4.00	< 4.00	0.17	0.31	0.25	0.065	0.080	0.69	0.041	0.44	0.35	–
–	C#Cc1cccc(Nc2c(C#N)cnc3cc(Br)ccc23)c1 [Compound 31]	–	–	< 4.00	< 4.00	0.92	0.95	0.88	0.92	0.84	0.45	0.34	0.87	0.59	–
–	C#Cc1cccc(Nc2c(C#N)cnc3cc(OC)ccc23)c1 [Compound 33]	–	–	4.40	5.39	0.81	0.97	0.90	0.78	0.22	0.20	0.16	0.68	0.44	–
–	C#Cc1cccc(Nc2ncnc3cc(OCCOC)c(OCCOC)cc23)c1 [Erlotinib, reference compound]	0.77	0.63 and 0.81	–	–	–	–	–	–	–	–	–	–	–	pIC50 ([1]; Homo sapiens): 4.17; pIC50 ([2]; Homo sapiens): 4.02; pIC50 ([3]; Homo sapiens): 4.72; pIC50 ([4]; Homo sapiens, Fibroblast): 4.72; CMI: Cell membrane integrity score (HL60 cells): 0.50 and 0.74; pIC50 ([5]; Homo sapiens): < 4.00

Reference: PMC9329436, “Optimization of the 4-anilinoquin(az)oline scaffold as epidermal growth factor receptor (EGFR) inhibitors for chordoma utilizing a toxicology profiling assay platform” (Scientific Reports, 2022)
